Assay [1] addresses T1, bradykinin 1 receptor (B1R) of the rat (Rattus norvegicus, UniProt P97583).
T1 construct: expressed in transfected cells; host or cells: CHO K1 cells
T1 sequence (P97583 1-337): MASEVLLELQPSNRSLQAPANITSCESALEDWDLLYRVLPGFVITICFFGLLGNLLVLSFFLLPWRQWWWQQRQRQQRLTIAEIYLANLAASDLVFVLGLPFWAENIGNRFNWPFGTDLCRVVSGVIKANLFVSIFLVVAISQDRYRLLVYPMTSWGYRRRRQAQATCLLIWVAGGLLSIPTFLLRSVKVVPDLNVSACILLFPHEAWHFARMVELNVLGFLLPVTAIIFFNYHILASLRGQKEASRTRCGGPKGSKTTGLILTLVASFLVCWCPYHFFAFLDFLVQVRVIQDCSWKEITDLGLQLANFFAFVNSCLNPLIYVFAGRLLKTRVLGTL
The experiment in a line: Functional investigation on the rat bradykinin 1 receptor (B1R), Ca2+ FLIPR assay in CHO K1 rB1R cells. It is filed as cell-based. As to conditions: test substance 10 μM, Ca2+ FLIPR, CHO K1 rB1R cells; for B1R Ant. r [10 μM] % Inhibition: B1R antagonism rat; for inhibition at 10 µM: CHO-K1, B1R antagonism rat, read-out: B1R Ant. r [10 μM] % Inhibition. In short, it runs like this: (§1)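 Fluo-4 Ca2+ readout, peak fluorescence. Stable CHO K1 transfectants; compound pre-incubated 10-20 min, then EC80 agonist—Lys-Des-Arg9-BK for hB1R, Des-Arg9-BK for rB1R. % inhibition vs maximal inhibition; IC50 from multiple concentrations, duplicate/triplicate, ≥2 independent runs.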

Assay [2] has as its target T2, human bradykinin 1 receptor (B1R) (Homo sapiens, UniProt P46663).
T2 construct: expressed in transfected cells; host or cells: CHO K1 cells
T2 sequence (P46663 1-353): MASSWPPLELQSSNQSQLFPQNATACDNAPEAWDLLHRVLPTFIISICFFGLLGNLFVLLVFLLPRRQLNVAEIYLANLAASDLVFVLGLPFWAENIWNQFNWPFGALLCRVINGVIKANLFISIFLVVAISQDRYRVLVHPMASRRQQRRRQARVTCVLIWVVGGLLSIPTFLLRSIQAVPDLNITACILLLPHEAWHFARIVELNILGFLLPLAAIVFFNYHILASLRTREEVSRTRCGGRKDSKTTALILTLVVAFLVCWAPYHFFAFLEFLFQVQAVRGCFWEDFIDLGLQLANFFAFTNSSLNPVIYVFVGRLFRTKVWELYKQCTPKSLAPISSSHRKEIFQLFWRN
The experiment in a line: Functional investigation on the human bradykinin 1 receptor (B1R), Ca2+ FLIPR assay in CHO K1 hB1R cells. It is filed as cell-based. The conditions noted are these: test substance 10 μM, Ca2+ FLIPR, CHO K1 hB1R cells; for B1R Ant. h [10 μM] % Inhibition: B1R antagonism human; for inhibition at 10 µM: CHO-K1, B1R antagonism human, read-out: B1R Ant. h [10 μM] % Inhibition. In short, it runs like this: as §1

As for `CN(C)C(c1ccc(Cl)cc1)C1CCC(CCNC(=O)COCCN(C)S(=O)(=O)c2ccc(OC(F)(F)F)cc2)CC1` (centres unmarked) [Example 575], the “B1R Ant. r [10 μM] % Inhibition” value in assay [1] worked out at 26%. Also, in assay [2], the “B1R Ant. h [10 μM] % Inhibition” value is −4%.

In the case of `COc1ccc(S(=O)(=O)N(C)CCOCC(=O)NCC2CCC(C(CCc3ccccc3)N(C)C)CC2)cc1` (centres unmarked) [Example 550], in assay [1], the “B1R Ant. r [10 μM] % Inhibition” value is recorded as 50%. Besides, in assay [2], the “B1R Ant. h [10 μM] % Inhibition” value was 62%.

As for `CN(C)C(c1cccs1)C1CCC(CNC(=O)COCCN(Cc2ccccc2)S(=O)(=O)c2ccccc2)CC1` (centres unmarked) [Example 102, 2-(2-(N-benzylphenylsulfonamido)ethoxy)-N-((4-((dimethylamino)(thiophen-2-yl)methyl)cyclohexyl)methyl)acetamide], the inhibition (in general, the relative decrease from the control value, in per cent) at 10 µM is -12% in assay [1] and -4% in assay [2].

Take `CCN(CCOCC(=O)NCCC1CCC(C(c2cccs2)N(C)C)CC1)S(=O)(=O)c1c(C)cc(OC)c(C)c1C` (centres unmarked) [Example 103, N-(2-(4-((dimethylamino)(thiophen-2-yl)methyl)cyclohexyl)ethyl)-2-(2-(N-ethyl-4-methoxy-2,3,6-trimethylphenylsulfonamido)ethoxy)acetamide]: the inhibition at 10 µM in assay [1] was determined as 84%; in assay [2] it was 90%.

For `COc1ccc(S(=O)(=O)N2CCCCC2COCC(=O)NCC2CCC(C(c3ccc(F)cc3)N(C)C)CC2)cc1OC` (single isomer, unassigned) [Example 537], the “B1R Ant. r [10 μM] % Inhibition” value in assay [1] is given as 8%. Besides, the “B1R Ant. h [10 μM] % Inhibition” value in assay [2] was −15%.

Turning to `CN(C)C(CCc1ccccc1)C1CCC(CNC(=O)COCCN(C)S(=O)(=O)c2ccc(OC(F)(F)F)cc2)CC1` (centres unmarked) [Example 567], in assay [1], the “B1R Ant. r [10 μM] % Inhibition” value is recorded as 42%. The “B1R Ant. h [10 μM] % Inhibition” value in assay [2] is reported as 75%.

For the compound `COc1cc(C)c(S(=O)(=O)N(C)CCOCC(=O)NC2CCC(C(c3cccs3)N(C)C)CC2)c(C)c1` (centres unmarked) [Example 111, N-(4-((dimethylamino)(thiophen-2-yl)methyl)cyclohexyl)-2-(2-(4-methoxy-N,2,6-trimethylphenylsulfonamido)ethoxy)acetamide], the figures for the inhibition at 10 µM in assay [1] and in assay [2] were 104% and 102%, respectively.

In the case of `COc1cc(C)c(S(=O)(=O)N(CCOCC(=O)NCCC2CCC(C(c3ccc(Cl)cc3)N(C)C)CC2)Cc2ccccc2)c(C)c1` (centres unmarked) [Example 569], the “B1R Ant. r [10 μM] % Inhibition” value in assay [1] was determined as 9%. For the same compound, the “B1R Ant. h [10 μM] % Inhibition” value in assay [2] turned out to be 14%.

For `COc1ccc(S(=O)(=O)N2CCCCC2COCC(=O)NC2CCC(C(c3ccc(F)cc3)N(C)C)CC2)cc1OC` (centres unmarked) [Example 555], in assay [1], the “B1R Ant. r [10 μM] % Inhibition” value is listed as 0%. In addition, in assay [2], the “B1R Ant. h [10 μM] % Inhibition” value is on record as −14%.

For the compound `COc1cc(C)c(S(=O)(=O)N(CCOCC(=O)NCC2CCC(C(c3ccc(F)cc3)N(C)C)CC2)Cc2ccccc2)c(C)c1C` (centres unmarked) [Example 563], the “B1R Ant. r [10 μM] % Inhibition” value in assay [1] was −16%. Besides, in assay [2], the “B1R Ant. h [10 μM] % Inhibition” value is on record as 54%.

With `CN(C)C(c1ccccc1)C1CCC(CNC(=O)COC2CCCN(S(=O)(=O)c3ccccc3)C2)CC1` (centres unmarked) [Example 114, N-((4-((dimethylamino)(phenyl)methyl)cyclohexyl)methyl)-2-(1-(phenylsulfonyl)piperidin-3-yloxy)acetamide], the results for the inhibition at 10 µM in assay [1] and in assay [2] were 8% and -17%, respectively.

Take `CN(C)C(c1cccs1)C1CCC(CNC(=O)COCCN(C)S(=O)(=O)c2ccc(Cl)cc2Cl)CC1` (centres unmarked) [Example 8, 2-(2-(2,4-dichloro-N-methylphenylsulfonamido)ethoxy)-N-((4-((dimethylamino)(thiophen-2-yl)methyl)cyclohexyl)methyl)acetamide]: the inhibition at 10 µM in assay [1] was found to be 62%; in assay [2], 101%.

As to `CN(C)C(c1cccc(F)c1)C1CCC(NC(=O)COC2CCCCC2N(C)S(=O)(=O)c2ccc(Cl)c(Cl)c2)CC1` (centres unmarked) [Example 132, 2-(2-(3,4-dichloro-N-methylphenylsulfonamido)cyclohexyloxy)-N-(4-((dimethylamino)(3-fluorophenyl)methyl)cyclohexyl)acetamide], the inhibition at 10 µM is 2% in assay [1] and 40% in assay [2].

In the case of `COc1cc(C)c(S(=O)(=O)N2CCCC(OCC(=O)NCC3CCC(C(CCc4ccccc4)N(C)C)CC3)C2)c(C)c1C` (centres unmarked) [Example 551], the “B1R Ant. r [10 μM] % Inhibition” value in assay [1] is 36%. In addition, the “B1R Ant. h [10 μM] % Inhibition” value in assay [2] stood at 94%.

Consider `CN(C)C(c1cccs1)C1CCC(CCNC(=O)COC2CCN(S(=O)(=O)c3cccc(C(F)(F)F)c3)C2)CC1` (centres unmarked) [Example 96, N-(2-(4-((dimethylamino)(thiophen-2-yl)methyl)cyclohexyl)ethyl)-2-(1-(3-(trifluoromethyl)phenylsulfonyl)pyrrolidin-3-yloxy)acetamide], for which the results for the inhibition at 10 µM in assay [1] and in assay [2] were 26% and 4%, respectively.

`CN(C)C(CCc1ccccc1)C1CCC(CNC(=O)COCCN(C)S(=O)(=O)c2cccc(C(F)(F)F)c2)CC1` (centres unmarked) [Example 556]: the “B1R Ant. r [10 μM] % Inhibition” value in assay [1] stood at 20%. For the same compound, the “B1R Ant. h [10 μM] % Inhibition” value in assay [2] came out at 82%.
